The test system of this assay is caries. Kind of assay: optimum photosensitiser concentration for photo-activated disinfection of caries. The conditions noted are these: at 635 nm. Here is the method: The concentration of tolonium chloride will depend on the specific application and chosen wavelength. We have determined an optimum at 635 nm for caries of 12 μg/ml. Longer wavelengths and other applications especially periodontal disease where in vivo dilution may occur are likely to need greater concentrations, whereas shorter wavelengths may require reduced concentrations. Preferably, therefore, the concentration should fall within an overall range between 1 and 200 μg/ml. […] The reduction in efficacy as the concentration increases beyond the optimum is thought to be due to the accompanying increasing absorption limiting the light transmission through the treatment zone.

From US20080214530A1, “Photo-Activated Disinfection” (priority 2003, published 2008) come the findings set out here.

In the case of `Cc1cc2nc3ccc(N(C)C)cc3[s+]c2cc1N` [tolonium chloride], the optimum concentration came out at 12 µg/mL.
